Measurements: patent US10668051B2, “Modulators of calcium release-activated calcium channel” (Rhizen Pharmaceuticals SA, priority 2009, dated 2020)
Counter-ions that a name gives are not always drawn.

Molecular target: CRAC channels (Homo sapiens (Human), UniProt Q96D31)
Assay: In-vitro CRAC channel inhibition assay in Jurkat cells (thapsigargin-induced calcium influx)
Type: cell-based
Method: 1A. In-Vitro CRAC Channel Inhibition Assay in Jurkat Cells
Plate is incubated at 37° C./5% CO2 for 30 min followed by further 15 min incubation at room temperature. Test compounds (DMSO stocks diluted in Ca^2+ and Mg^2+ free Hanks buffer) at desired concentrations were added to the wells and incubated for 15 min. Thapsigargin (1 μM final concentration) was added to the wells and incubated for 15 min to inhibit the Sarco-endoplasmic reticulum Ca^2+ ATPase pump thereby depleting endoplasmic calcium and raising cytosolic calcium concentrations. Store-operated calcium entry was initiated by adding extracellular Ca^2+ to a final concentration of 1.8 mM. Fluorescence was monitored over 5 min on a plate reader (BMG Labtech., Germany) with excitation at 485 nm and; an emission wavelength at 520 nm. Data were analyzed using GraphPad Prism. IC50 for each compound was determined based on the percent inhibition of thapsigargin-induced calcium influx into cells.

CRAC channels, sequence (Q96D31 whole entry): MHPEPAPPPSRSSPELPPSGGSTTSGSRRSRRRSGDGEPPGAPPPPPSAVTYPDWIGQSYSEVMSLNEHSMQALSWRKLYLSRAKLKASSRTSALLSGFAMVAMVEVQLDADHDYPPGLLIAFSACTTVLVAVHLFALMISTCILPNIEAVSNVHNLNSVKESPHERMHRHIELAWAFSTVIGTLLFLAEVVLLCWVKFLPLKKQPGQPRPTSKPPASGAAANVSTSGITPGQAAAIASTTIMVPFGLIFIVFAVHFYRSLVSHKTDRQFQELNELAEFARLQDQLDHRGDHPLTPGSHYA

SMILES | inhibition at 1 µM [%]
Cc1ncsc1C(=O)Nc1ccc(-n2nc(C(F)(F)F)cc2C(F)F)cc1 [Example 126, N-{4-[5-(difluoromethyl)-3-(trifluoromethyl)-1H-pyrazol-1-yl]phenyl}-4-methyl thiazole-5-carboxamide] | 100
O=C(Nc1c(F)cccc1Cl)c1ccc(-n2nc(C(F)(F)F)cc2C2CC2)c(F)c1 [Example 128, N-(2-chloro-6-fluorophenyl)-4-[5-cyclopropyl-3-(trifluoromethyl)-1H-pyrazol-1-yl]-3-fluorobenzamide] | 100
Cc1ncncc1C(=O)Nc1ccc(-n2nc(C(F)(F)F)cc2C2CC2)nc1 [Example 116, N-{6-[5-cyclopropyl-3-(trifluoromethyl)-1H-pyrazol-1-yl]pyridin-3-yl}-4-methylpyrimidine-5-carboxamide] | 15.4
Cc1ncsc1C(=O)Nc1ccc(-n2nc(C(F)(F)F)cc2CF)cc1 [Example 125, N-{4-[5-(fluoromethyl)-3-(trifluoromethyl)-1H-pyrazol-1-yl]phenyl}-4-methylthiazole-5-carboxamide] | 100
Cc1nnsc1C(=O)Nc1ccc(-n2nc(C(F)(F)F)c(Cl)c2C2CC2)c(F)c1 [Example 95, N-{4-[4-chloro-5-cyclopropyl-3-(trifluoromethyl)-1H-pyrazol-1-yl]-3-fluorophenyl}-4-methyl-1,2,3-thiadiazole-5-carboxamide] | 100
O=C(Cc1ccncc1)Nc1ccc(-n2nc(C(F)(F)F)cc2C2CC2)nc1 [Example 118, N-{6-[5-cyclopropyl-3-(trifluoromethyl)-1H-pyrazol-1-yl]pyridin-3-yl}-2-(pyridin-4-yl)acetamide hydrochloride] | 20.9
Cc1ncncc1C(=O)N(C)c1ccc(-n2nc(C(F)(F)F)cc2C2CC2)c(F)c1 [Example 94, N-{4-[5-cyclopropyl-3-(trifluoromethyl)-1H-pyrazol-1-yl]-3-fluorophenyl}-N,4-dimethylpyrimidine-5-carboxamide] | 45.4
O=C(Nc1cccc(F)c1F)c1ccc(-n2nc(C(F)(F)F)cc2C2CC2)c(F)c1 [Example 99, 4-[5-cyclopropyl-3-(trifluoromethyl)-1H-pyrazol-1-yl]-N-(2,3-difluorophenyl)-3-fluorobenzamide] | 56.2
O=C(Cc1ccccn1)Nc1ccc(-n2nc(C(F)(F)F)c(Cl)c2C2CC2)c(F)c1 [Example 96, N-{4-[4-chloro-5-cyclopropyl-3-(trifluoromethyl)-1H-pyrazol-1-yl]-3-fluorophenyl}-2-(pyridin-2-yl)acetamide hydrochloride] | 18
O=C(Nc1ccc(-n2nc(C(F)(F)F)cc2C2CC2)nc1)c1ccncc1 [Example 113, N-{6-[5-cyclopropyl-3-(trifluoromethyl)-1H-pyrazol-1-yl]pyridin-3-yl}isonicotinamide hydrochloride] | 100
O=C(Nc1cnc(-n2nc(C(F)(F)F)cc2C2CC2)nc1)c1c(F)cccc1F [Example 124, N-{2-[5-cyclopropyl-3-(trifluoromethyl)-1H-pyrazol-1-yl]pyrimidin-5-yl}-2,6-difluorobenzamide] | 86.2
O=C(Cc1ccccn1)Nc1ccc(-n2nc(C(F)(F)F)cc2C2CC2)nc1 [Example 117, N-{6-[5-cyclopropyl-3-(trifluoromethyl)-1H-pyrazol-1-yl]pyridin-3-yl}-2-(pyridin-2-yl)acetamide hydrochloride] | 0
O=C(Nc1ccc(-n2nc(C(F)(F)F)cc2C2CC2)nc1)c1ccccn1 [Example 109, N-{6-[5-cyclopropyl-3-(trifluoromethyl)-1H-pyrazol-1-yl]pyridin-3-yl}picolinamide] | 6.18
Cc1ncncc1C(=O)Nc1cnc(-n2nc(C(F)(F)F)cc2C2CC2)nc1 [Example 133, N-{2-[5-cyclopropyl-3-(trifluoromethyl)-1H-pyrazol-1-yl]pyrimidin-5-yl}-4-methylpyrimidine-5-carboxamide] | 5.62
O=C(Cc1ccccn1)Nc1ccc(-n2nc(C(F)(F)F)c(Cl)c2C2CC2)cc1 [Example 81, N-{4-[4-chloro-5-cyclopropyl-3-(trifluoromethyl)-1H-pyrazol-1-yl]phenyl}-2-(pyridin-2-yl)acetamide hydrochloride] | 56.1

Further lines, results first:

inhibition at 1 µM [%] | SMILES
83.7 | Cc1ccccc1C(=O)Nc1ccc(-n2nc(C(F)(F)F)cc2C2CC2)cc1 [Example 60, N-{4-[5-cyclopropyl-3-(trifluoromethyl)-1H-pyrazol-1-yl]phenyl}-2-methylbenzamide]
99 | Cc1ccccc1C(=O)Nc1ccc(-n2nc(C3CC3)cc2C2CC2)cc1 [Example 7, N-[4-(3,5-dicyclopropyl-1H-pyrazol-1-yl)phenyl]-2-methylbenzamide]
26.2 | Cc1ccccc1NC(=O)c1ccc(-n2nc(C3CC3)cc2C2CC2)nc1 [Example 42, 6-(3,5-dicyclopropyl-1H-pyrazol-1-yl)-N-o-tolylnicotinamide]
70.2 | O=C(Cc1ccc(F)cc1)Nc1ccc(-n2nc(C3CC3)cc2C2CC2)cc1 [Example 20, N-[4-(3,5-dicyclopropyl-1H-pyrazol-1-yl)phenyl]-2-(4-fluorophenyl)acetamide]
77 | Cc1ccccc1C(=O)Nc1ccc(-n2nc(C3CC3)cc2C2CC2)c(F)c1 [Example 31, N-[4-(3,5-dicyclopropyl-1H-pyrazol-1-yl)-3-fluorophenyl]-2-methyl benzamide]
43 | O=C(CN1CCOCC1)Nc1ccc(-n2nc(C3CC3)cc2C2CC2)cc1 [Example 26, N-[4-(3,5-dicyclopropyl-1H-pyrazol-1-yl)phenyl]-2-morpholinoacetamide]
82.2 | Cc1nnsc1C(=O)Nc1ccc(-n2nc(C3CC3)c(Cl)c2C2CC2)c(F)c1 [Example 37, N-[4-(4-chloro-3,5-dicyclopropyl-1H-pyrazol-1-yl)-3-fluorophenyl]-4-methyl-1,2,3-thiadiazole-5-carboxamide]
40.5 | Cn1ccnc1C(=O)Nc1ccc(-n2nc(C(F)(F)F)cc2C2CC2)cc1 [Example 58, N-{4-[5-cyclopropyl-3-(trifluoromethyl)-1H-pyrazol-1-yl]phenyl}-1-methyl-1H-imidazole-2-carboxamide]
100 | O=C(Nc1ccc(-n2nc(C(F)(F)F)cc2C2CC2)cc1)c1ccncc1F [Example 67, N-{4-[5-cyclopropyl-3-(trifluoromethyl)-1H-pyrazol-1-yl]phenyl}-3-fluoroisonicotinamide]
9.34 | O=C(Nc1ccc(-n2nc(C3CC3)cc2C2CC2)nc1)c1ccccc1F [Example 43, N-[6-(3,5-dicyclopropyl-1H-pyrazol-1-yl)pyridin-3-yl]-2-fluorobenzamide]
100 | O=C(Nc1ccc(-n2nc(C(F)(F)F)cc2C2CC2)cc1)c1ccncc1 [Example 66, N-{4-[5-cyclopropyl-3-(trifluoromethyl)-1H-pyrazol-1-yl]phenyl}pyridine-4-carboxamide hydrochloride]
73.5 | O=C(Cc1ccccc1)Nc1ccc(-n2nc(C3CC3)cc2C2CC2)cc1 [Example 19, N-[4-(3,5-dicyclopropyl-1H-pyrazol-1-yl)phenyl]-2-phenylacetamide]
100 | O=C(Nc1ccc(-n2nc(C3CC3)cc2C2CC2)cc1)c1c(F)cccc1F [Example 8, N-[4-(3,5-dicyclopropyl-1H-pyrazol-1-yl)phenyl]-2,6-difluorobenzamide]
100 | Cc1ncsc1CNc1ccc(-n2nc(C(F)(F)F)cc2C2CC2)cc1 [Example 74, 4-[5-cyclopropyl-3-(trifluoromethyl)-1H-pyrazol-1-yl]-N-[(4-methylthiazol-5-yl)methyl]aniline]
61.5 | Cc1ncncc1C(=O)Nc1ccc(-n2nc(C(F)(F)F)cc2C2CC2)cc1 [Example 68, N-{4-[5-cyclopropyl-3-(trifluoromethyl)-1H-pyrazol-1-yl]phenyl}-4-methylpyrimidine-5-carboxamide]
48.5 | Cc1noc(C)c1C(=O)Nc1ccc(-n2nc(C3CC3)cc2C2CC2)cc1 [Example 5, N-[4-(3,5-dicyclopropyl-1H-pyrazol-1-yl)phenyl]-3,5-dimethylisoxazole-4-carboxamide]
100 | O=C(Cc1cccnc1)Nc1ccc(-n2nc(C(F)(F)F)cc2C2CC2)cc1 [Example 72, N-{4-[5-cyclopropyl-3-(trifluoromethyl)-1H-pyrazol-1-yl]phenyl}-2-(pyridin-3-yl)acetamide hydrochloride]
63.6 | O=C(Nc1ccc(-n2nc(C3CC3)cc2C2CC2)c(F)c1)c1cccc(F)c1F [Example 32, N-[4-(3,5-dicyclopropyl-1H-pyrazol-1-yl)-3-fluorophenyl]-2,3-difluorobenzamide]
92.8 | O=C(Nc1ccc(-n2nc(C3CC3)cc2C2CC2)cc1)c1ccncc1F [Example 16, N-[4-(3,5-dicyclopropyl-1H-pyrazole-1-yl)phenyl]-3-fluoroisonicotinamide]
0.26 | O=C(Nc1ccc(-n2nc(C3CC3)cc2C2CC2)nc1)c1cccnc1 [Example 46, N-[6-(3,5-dicyclopropyl-1H-pyrazol-1-yl)pyridin-3-yl]nicotinamide dihydrochloride]
0 | Cc1ncncc1C(=O)Nc1ccc(-n2nc(C3CC3)cc2C2CC2)nc1 [Example 51, N-[6-(3,5-dicyclopropyl-1H-pyrazol-1-yl)pyridin-3-yl]-4-methylpyrimidine-5-carboxamide hydrochloride]
